According to the NIST ThermoML archive (doi:10.1016/j.jct.2014.05.016):

Assay: xn = mol fraction of the nth substance listed
Conditions: 100 kPa, Liquid; for viscosity: Concentric cylinders viscometry; for mass density: Vibrating tube method

C[n+]1ccn(CCO)c1.F[B-](F)(F)F [1-(2-hydroxyethyl)-3-methylimidazolium tetrafluoroborate] + CCCCn1cc[n+](C)c1.F[B-](F)(F)F
Conditions	mass density [kg/m3]	viscosity [mPa·s]
293.15 K, x1 = 0.1003	–	141.5
293.15 K, x1 = 0.101	1217.5	–
293.15 K, x1 = 0.2001	–	138.1
293.15 K, x1 = 0.201	1230.9	–
293.15 K, x1 = 0.2997	–	139.6
293.15 K, x1 = 0.3002	1245.7	–
293.15 K, x1 = 0.3999	–	140.6
293.15 K, x1 = 0.4006	1261.4	–
293.15 K, x1 = 0.4996	–	138.7
293.15 K, x1 = 0.5009	1276.1	–
293.15 K, x1 = 0.5991	1292.3	143.1
293.15 K, x1 = 0.6997	–	144.7
293.15 K, x1 = 0.7001	1310.8	–
293.15 K, x1 = 0.7999	–	147.1
293.15 K, x1 = 0.8	1326.3	–
293.15 K, x1 = 0.8995	1344.4	–
293.15 K, x1 = 0.8998	–	152.3
293.15 K, x1 = 1	1362.4	153.6
298.15 K, x1 = 0.1003	–	107.8
298.15 K, x1 = 0.101	1214	–
298.15 K, x1 = 0.2001	–	105.3
298.15 K, x1 = 0.201	1227.4	–
298.15 K, x1 = 0.2997	–	106.6
298.15 K, x1 = 0.3002	1242	–
298.15 K, x1 = 0.3999	–	107.4
298.15 K, x1 = 0.4006	1257.9	–
298.15 K, x1 = 0.4996	–	105.4
298.15 K, x1 = 0.5009	1272.5	–
298.15 K, x1 = 0.5991	1288.6	108.3
298.15 K, x1 = 0.6997	–	109.3
298.15 K, x1 = 0.7001	1307.6	–
298.15 K, x1 = 0.7999	–	111.4
298.15 K, x1 = 0.8	1322.5	–
298.15 K, x1 = 0.8995	1340.6	–
298.15 K, x1 = 0.8998	–	114.1
298.15 K, x1 = 1	1358.7	115.1
303.15 K, x1 = 0.1003	–	83.64
303.15 K, x1 = 0.101	1210.4	–
303.15 K, x1 = 0.2001	–	81.83
303.15 K, x1 = 0.201	1223.9	–
303.15 K, x1 = 0.2997	–	82.64
303.15 K, x1 = 0.3002	1238.5	–
303.15 K, x1 = 0.3999	–	83.2
303.15 K, x1 = 0.4006	1254.3	–
303.15 K, x1 = 0.4996	–	81.76
303.15 K, x1 = 0.5009	1268.9	–
303.15 K, x1 = 0.5991	1284.9	83.78
303.15 K, x1 = 0.6997	–	84.42
303.15 K, x1 = 0.7001	1304.2	–
303.15 K, x1 = 0.7999	–	85.38
303.15 K, x1 = 0.8	1318.9	–
303.15 K, x1 = 0.8995	1336.9	–
303.15 K, x1 = 0.8998	–	87.51
303.15 K, x1 = 1	1354.8	87.98
308.15 K, x1 = 0.1003	–	66.1
308.15 K, x1 = 0.101	1206.9	–
308.15 K, x1 = 0.2001	–	64.77
308.15 K, x1 = 0.201	1220.5	–
308.15 K, x1 = 0.2997	–	65.41
308.15 K, x1 = 0.3002	1234.9	–
308.15 K, x1 = 0.3999	–	65.73
308.15 K, x1 = 0.4006	1250.7	–
308.15 K, x1 = 0.4996	–	64.71
308.15 K, x1 = 0.5009	1265.2	–
308.15 K, x1 = 0.5991	1281.3	66.04
308.15 K, x1 = 0.6997	–	66.38
308.15 K, x1 = 0.7001	1300.8	–
308.15 K, x1 = 0.7999	–	67.14
308.15 K, x1 = 0.8	1315.2	–
308.15 K, x1 = 0.8995	1333.1	–
308.15 K, x1 = 0.8998	–	68.51
308.15 K, x1 = 1	1351.2	68.59
313.15 K, x1 = 0.1003	–	53.11
313.15 K, x1 = 0.101	1203.3	–
313.15 K, x1 = 0.2001	–	52.17
313.15 K, x1 = 0.201	1216.9	–
313.15 K, x1 = 0.2997	–	52.58
313.15 K, x1 = 0.3002	1231.3	–
313.15 K, x1 = 0.3999	–	52.83
313.15 K, x1 = 0.4006	1247.1	–
313.15 K, x1 = 0.4996	–	51.96
313.15 K, x1 = 0.5009	1261.6	–
313.15 K, x1 = 0.5991	1277.7	52.99
313.15 K, x1 = 0.6997	–	53.19
313.15 K, x1 = 0.7001	1297.3	–
313.15 K, x1 = 0.7999	–	53.69
313.15 K, x1 = 0.8	1311.5	–
313.15 K, x1 = 0.8995	1329.4	–
313.15 K, x1 = 0.8998	–	54.68
313.15 K, x1 = 1	1347.4	54.81
318.15 K, x1 = 0.1003	–	43.44
318.15 K, x1 = 0.101	1199.8	–
318.15 K, x1 = 0.2001	–	42.58
318.15 K, x1 = 0.201	1213.5	–
318.15 K, x1 = 0.2997	–	42.92
318.15 K, x1 = 0.3002	1227.8	–
318.15 K, x1 = 0.3999	–	43.11
318.15 K, x1 = 0.4006	1243.6	–
318.15 K, x1 = 0.4996	–	42.41
318.15 K, x1 = 0.5009	1258.1	–
318.15 K, x1 = 0.5991	1274.1	43.22
318.15 K, x1 = 0.6997	–	43.31
318.15 K, x1 = 0.7001	1293.8	–
318.15 K, x1 = 0.7999	–	43.66
318.15 K, x1 = 0.8	1307.8	–
318.15 K, x1 = 0.8995	1325.7	–
318.15 K, x1 = 0.8998	–	44.39
318.15 K, x1 = 1	1343.7	44.44
323.15 K, x1 = 0.1003	–	35.84
323.15 K, x1 = 0.101	1196.3	–
323.15 K, x1 = 0.2001	–	35.27
323.15 K, x1 = 0.201	1209.9	–
323.15 K, x1 = 0.2997	–	35.51
323.15 K, x1 = 0.3002	1224.2	–
323.15 K, x1 = 0.3999	–	35.68
323.15 K, x1 = 0.4006	1240	–
323.15 K, x1 = 0.4996	–	35.08
323.15 K, x1 = 0.5009	1254.5	–
323.15 K, x1 = 0.5991	1270.4	35.69
323.15 K, x1 = 0.6997	–	35.78
323.15 K, x1 = 0.7001	1290.3	–
323.15 K, x1 = 0.7999	–	36.02
323.15 K, x1 = 0.8	1304.1	–
323.15 K, x1 = 0.8995	1322	–
323.15 K, x1 = 0.8998	–	36.55
323.15 K, x1 = 1	1340.1	36.5
328.15 K, x1 = 0.1003	–	29.96
328.15 K, x1 = 0.101	1192.8	–
328.15 K, x1 = 0.2001	–	29.52
328.15 K, x1 = 0.201	1206.5	–
328.15 K, x1 = 0.2997	–	29.75
328.15 K, x1 = 0.3002	1220.7	–
328.15 K, x1 = 0.3999	–	29.9
328.15 K, x1 = 0.4006	1236.4	–
328.15 K, x1 = 0.4996	–	29.42
328.15 K, x1 = 0.5009	1250.9	–
328.15 K, x1 = 0.5991	1266.8	29.91
328.15 K, x1 = 0.6997	–	29.95
328.15 K, x1 = 0.7001	1286.7	–
328.15 K, x1 = 0.7999	–	30.13
328.15 K, x1 = 0.8	1300.5	–
328.15 K, x1 = 0.8995	1318.3	–
328.15 K, x1 = 0.8998	–	30.58
328.15 K, x1 = 1	1336.4	30.46
333.15 K, x1 = 0.1003	–	25.35
333.15 K, x1 = 0.101	1189.3	–
333.15 K, x1 = 0.2001	–	25.03
333.15 K, x1 = 0.201	1203	–
333.15 K, x1 = 0.2997	–	25.2
333.15 K, x1 = 0.3002	1217.2	–
333.15 K, x1 = 0.3999	–	25.27
333.15 K, x1 = 0.4006	1232.9	–
333.15 K, x1 = 0.4996	–	24.96
333.15 K, x1 = 0.5009	1247.6	–
333.15 K, x1 = 0.5991	1263.2	25.36
333.15 K, x1 = 0.6997	–	25.41
333.15 K, x1 = 0.7001	1283.1	–
333.15 K, x1 = 0.7999	–	25.55
333.15 K, x1 = 0.8	1296.8	–
333.15 K, x1 = 0.8995	1314.7	–
333.15 K, x1 = 0.8998	–	25.83
333.15 K, x1 = 1	1332.8	25.73
338.15 K, x1 = 0.1003	–	21.68
338.15 K, x1 = 0.101	1185.9	–
338.15 K, x1 = 0.2001	–	21.42
338.15 K, x1 = 0.201	1199.5	–
338.15 K, x1 = 0.2997	–	21.57
338.15 K, x1 = 0.3002	1213.7	–
338.15 K, x1 = 0.3999	–	21.63
338.15 K, x1 = 0.4006	1229.4	–
338.15 K, x1 = 0.4996	–	21.39
338.15 K, x1 = 0.5009	1244.1	–
338.15 K, x1 = 0.5991	1259.7	21.68
338.15 K, x1 = 0.6997	–	21.72
338.15 K, x1 = 0.7001	1279.5	–
338.15 K, x1 = 0.7999	–	21.81
338.15 K, x1 = 0.8	1293.2	–
338.15 K, x1 = 0.8995	1311.1	–
338.15 K, x1 = 0.8998	–	22.08
338.15 K, x1 = 1	1329.2	21.98
343.15 K, x1 = 0.1003	–	18.71
343.15 K, x1 = 0.101	1182.4	–
343.15 K, x1 = 0.2001	–	18.51
343.15 K, x1 = 0.201	1196	–
343.15 K, x1 = 0.2997	–	18.64
343.15 K, x1 = 0.3002	1210.3	–
343.15 K, x1 = 0.3999	–	18.68
343.15 K, x1 = 0.4006	1225.9	–
343.15 K, x1 = 0.4996	–	18.5
343.15 K, x1 = 0.5009	1240.6	–
343.15 K, x1 = 0.5991	1256.2	18.74
343.15 K, x1 = 0.6997	–	18.78
343.15 K, x1 = 0.7001	1276	–
343.15 K, x1 = 0.7999	–	18.84
343.15 K, x1 = 0.8	1289.7	–
343.15 K, x1 = 0.8995	1307.5	–
343.15 K, x1 = 0.8998	–	19.06
343.15 K, x1 = 1	1325.5	18.95
